Drawing on US20250101041A1, “POSITIVE ALLOSTERIC MODULATORS OF THE MUSCARINIC ACETYLCHOLINE RECEPTOR M4” (Vanderbilt University, priority 2022, published 2025), this text covers Emax and EC50 for 25 compounds.

The test addresses T1, human mAChR M4 (Homo sapiens, UniProt P08173).
T1 construct: expressed in transfected cells; host or cells: CHO-K1 (American Type Culture Collection), stably expressing hM4 and Gqi5
T1 sequence (P08173 1-479): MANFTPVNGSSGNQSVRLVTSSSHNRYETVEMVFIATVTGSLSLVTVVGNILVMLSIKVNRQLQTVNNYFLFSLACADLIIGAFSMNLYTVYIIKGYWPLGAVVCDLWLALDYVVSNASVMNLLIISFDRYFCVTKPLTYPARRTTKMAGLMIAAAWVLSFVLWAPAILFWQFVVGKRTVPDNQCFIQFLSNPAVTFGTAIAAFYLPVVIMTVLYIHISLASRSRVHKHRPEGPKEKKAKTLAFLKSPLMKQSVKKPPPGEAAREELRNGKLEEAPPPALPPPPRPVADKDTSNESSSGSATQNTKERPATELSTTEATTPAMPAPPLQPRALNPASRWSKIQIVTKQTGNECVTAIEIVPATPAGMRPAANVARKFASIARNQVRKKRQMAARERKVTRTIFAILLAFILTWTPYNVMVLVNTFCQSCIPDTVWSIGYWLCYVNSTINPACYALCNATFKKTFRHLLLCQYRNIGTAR
The test is described as follows: mAChR M4 cell-based functional assay: calcium mobilization (Fluo-4, FDSS), potentiation of EC20 acetylcholine response in hM4-Gqi5 CHO-K1 cells. The following applies: human M4; for Emax at 30 µM: CHO-K1, % ACh maximum at 30 μM; for EC50: potentiation of EC20 acetylcholine response, calcium mobilization. The method, boiled down: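 Readout is the fluorescence-ratio rise at 1 Hz on FDSS, with PAM activity taken as concentration-dependent enhancement of the EC20 acetylcholine response, fitted four-parameter for EC50/Emax. hM4-Gqi5 CHO-K1 cells carried Fluo-4 AM dye; test compounds (11 points, 1:3) preceded EC20 acetylcholine additions at 144 s and 230 s.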
For orientation: Calcium flux is commonly read through the fluorescence of an indicator in the cells.

In general, Emax refers to the maximal effect, on the per cent scale that the assay sets. For orientation: EC50 means the concentration giving half of the maximal effect. As to `Cc1cc2nccc(=O)n2nc1N1CCc2ncc(Cc3cccnc3)cc2C1` [Compound 1-378, 8-methyl-7-(3-(pyridin-3-ylmethyl)-7,8-dihydro-1,6-naphthyridin-6(5H)-yl)-4H-pyrimido[1,2-b]pyridazin-4-one], the maximal response (Emax) at 30 µM came to 83% and the 50% effective concentration (EC50) turned out to be 898 nM.

Turning to `Cc1cc2nccc(=O)n2nc1N1CCc2ncc(-c3ccc(=O)n(C)c3)cc2C1` [Compound 1-49, 8-methyl-7-(3-(1-methyl-6-oxo-1,6-dihydropyridin-3-yl)-7,8-dihydro-1,6-naphthyridin-6(5H)-yl)-4H-pyrimido[1,2-b]pyridazin-4-one], the Emax at 30 µM was 98% and the concentration for a half-maximal effect (EC50) is 2340 nM.

As to `Cc1c(N2CCc3ncc(-c4ccccc4Cl)cc3C2)nn2c(=O)ccnc2c1C` [Compound 1-267, 7-(3-(2-chlorophenyl)-7,8-dihydro-1,6-naphthyridin-6(5H)-yl)-8,9-dimethyl-4H-pyrimido[1,2-b]pyridazin-4-one], the maximal response (Emax) at 30 µM came out at 89% and the half-maximal effective concentration (EC50) worked out at 183 nM.

Regarding `Cc1c(N2CCc3ncc(-c4cncc(Cl)c4)cc3C2)nn2c(=O)ccnc2c1C` [Compound 1-144, 7-(3-(5-chloropyridin-3-yl)-7,8-dihydro-1,6-naphthyridin-6(5H)-yl)-8,9-dimethyl-4H-pyrimido[1,2-b]pyridazin-4-one], the Emax at 30 µM was 82% and the EC50 worked out at 246 nM.

Take `Cc1c(N2CCc3ncc(-c4cccnc4)cc3C2)nn2c(=O)ccnc2c1C` [Compound 1-148, 8,9-dimethyl-7-(3-(pyridin-3-yl)-7,8-dihydro-1,6-naphthyridin-6(5H)-yl)-4H-pyrimido[1,2-b]pyridazin-4-one]: the maximum response (Emax) at 30 µM turned out to be 89% and the EC50 was found to be 344 nM.

As to `Cc1c(N2CCc3ncc(-c4ccc(N5CCOCC5)nc4)cc3C2)nn2c(=O)ccnc2c1C` [Compound 1-99, 8,9-dimethyl-7-(3-(6-morpholinopyridin-3-yl)-7,8-dihydro-1,6-naphthyridin-6(5H)-yl)-4H-pyrimido[1,2-b]pyridazin-4-one], the Emax at 30 µM was 88% and the EC50 turned out to be 190 nM.

With `Cc1cc2nccc(=O)n2nc1N1CCc2ncc(N3CCCn4nccc43)cc2C1` [Compound 2-1, 7-(3-(6,7-dihydropyrazolo[1,5-a]pyrimidin-4(5H)-yl)-7,8-dihydro-1,6-naphthyridin-6(5H)-yl)-8-methyl-4H-pyrimido[1,2-b]pyridazin-4-one], the maximum response (Emax) at 30 µM came out at 97% and the 50% effective concentration (EC50) is 21 nM.

In the case of `Cc1ccc(-c2cnc3c(c2)CN(c2nn4c(=O)ccnc4c(C)c2C2CC2)CC3)cn1` [Compound 1-112, 8-cyclopropyl-9-methyl-7-(3-(6-methylpyridin-3-yl)-7,8-dihydro-1,6-naphthyridin-6(5H)-yl)-4H-pyrimido[1,2-b]pyridazin-4-one], the maximum response (Emax) at 30 µM was 67% and the EC50 was found to be 668 nM.

As for `Cc1c(N2CCc3ncc(-c4ccnn4C)cc3C2)nn2c(=O)ccnc2c1C` [Compound 1-63, 8,9-dimethyl-7-(3-(1-methyl-1H-pyrazol-5-yl)-7,8-dihydro-1,6-naphthyridin-6(5H)-yl)-4H-pyrimido[1,2-b]pyridazin-4-one], the maximal response (Emax) at 30 µM turned out to be 97% and the EC50 stood at 203 nM.

Consider `Cc1cc(=O)n2nc(N3CCc4ncc(Nc5ccnn5C)cc4C3)c(C)cc2n1` [Compound 2-20, 2,8-dimethyl-7-(3-((1-methyl-1H-pyrazol-5-yl)amino)-7,8-dihydro-1,6-naphthyridin-6(5H)-yl)-4H-pyrimido[1,2-b]pyridazin-4-one], for which the Emax at 30 µM came to 88% and the EC50 turned out to be 166 nM.

Regarding `Cc1cc2nccc(=O)n2nc1N1CCc2ncc(C(F)(F)F)cc2C1` [Compound 1-1, 8-methyl-7-(3-(trifluoromethyl)-7,8-dihydro-1,6-naphthyridin-6(5H)-yl)-4H-pyrimido[1,2-b]pyridazin-4-one], the maximum response (Emax) at 30 µM stood at 81% and the EC50 was 300 nM.

With `Cc1cc2nccc(=O)n2nc1N1CCc2ncc(Nc3cc(Cl)cnc3F)cc2C1` [Compound 2-116, 7-(3-((5-chloro-2-fluoropyridin-3-yl)amino)-7,8-dihydro-1,6-naphthyridin-6(5H)-yl)-8-methyl-4H-pyrimido[1,2-b]pyridazin-4-one], the Emax at 30 µM was found to be 92% and the EC50 is 52 nM.

With `Cc1cc2nccc(=O)n2nc1N1CCc2ncc(Nc3ccnc(C)c3F)cc2C1` [Compound 2-153, 7-(3-((3-fluoro-2-methylpyridin-4-yl)amino)-7,8-dihydro-1,6-naphthyridin-6(5H)-yl)-8-methyl-4H-pyrimido[1,2-b]pyridazin-4-one], the maximal response (Emax) at 30 µM is 83% and the concentration for a half-maximal effect (EC50) was found to be 27 nM.

As for `Cc1ccc(F)cc1Nc1cnc2c(c1)CN(c1nn3c(=O)ccnc3cc1C)CC2` [Compound 2-69, 7-(3-((5-fluoro-2-methylphenyl)amino)-7,8-dihydro-1,6-naphthyridin-6(5H)-yl)-8-methyl-4H-pyrimido[1,2-b]pyridazin-4-one], the Emax at 30 µM worked out at 96% and the EC50 was determined as 20 nM.

For `Cc1cc(=O)n2nc(N3CCc4ncc(-c5ccsc5)cc4C3)c(C)cc2n1` [Compound 1-300, 2,8-dimethyl-7-(3-(thiophen-3-yl)-7,8-dihydro-1,6-naphthyridin-6(5H)-yl)-4H-pyrimido[1,2-b]pyridazin-4-one], the Emax at 30 µM came out at 87% and the EC50 came to 122 nM.

Consider `Cc1cc(=O)n2nc(N3CCc4ncc(-c5ccc(C(F)(F)F)nc5)cc4C3)c(C)c(C)c2n1` [Compound 1-130, 2,8,9-trimethyl-7-(3-(6-(trifluoromethyl)pyridin-3-yl)-7,8-dihydro-1,6-naphthyridin-6(5H)-yl)-4H-pyrimido[1,2-b]pyridazin-4-one], for which the Emax at 30 µM came to 84% and the EC50 was 8090 nM.

For `Cc1c(N2CCc3ncc(-c4cncc(C#N)c4)cc3C2)nn2c(=O)ccnc2c1C` [Compound 1-223, 5-(6-(8,9-dimethyl-4-oxo-4H-pyrimido[1,2-b]pyridazin-7-yl)-5,6,7,8-tetrahydro-1,6-naphthyridin-3-yl)nicotinonitrile], the Emax at 30 µM is 64% and the EC50 stood at 618 nM.

On to `COCc1cc(=O)n2nc(N3CCc4ncc(-c5cc(F)ncc5F)cc4C3)c(C)cc2n1` [Compound 1-320, 7-(3-(2,5-difluoropyridin-4-yl)-7,8-dihydro-1,6-naphthyridin-6(5H)-yl)-2-(methoxymethyl)-8-methyl-4H-pyrimido[1,2-b] pyridazin-4-one], for which the Emax at 30 µM came out at 77% and the 50% effective concentration (EC50) was found to be 1470 nM.

For the compound `Cc1cc2nccc(=O)n2nc1N1CCc2ncc(-c3ncsc3C)cc2C1` [Compound 1-393, 8-methyl-7-(3-(5-methylthiazol-4-yl)-7,8-dihydro-1,6-naphthyridin-6(5H)-yl)-4H-pyrimido[1,2-b]pyridazin-4-one], the maximal effect (Emax) at 30 µM came out at 83% and the concentration giving a half-maximal response (EC50) turned out to be 1050 nM.

Turning to `Cc1c(N2CCc3ncc(C4CCOCC4)cc3C2)nn2c(=O)ccnc2c1C` [Compound 1-429, 8,9-Dimethyl-7-(3-(tetrahydro-2H-pyran-4-yl)-7,8-dihydro-1,6-naphthyridin-6(5H)-yl)-4H-pyrimido[1,2-b]pyridazin-4-one], the Emax at 30 µM was determined as 91% and the 50% effective concentration (EC50) was 901 nM.

As for `COCc1cc(=O)n2nc(N3CCc4ncc(-c5sccc5OC)cc4C3)c(C)cc2n1` [Compound 1-368, 2-(methoxymethyl)-7-(3-(3-methoxythiophen-2-yl)-7,8-dihydro-1,6-naphthyridin-6(5H)-yl)-8-methyl-4H-pyrimido[1,2-b]pyridazin-4-one], the Emax at 30 µM stood at 95% and the concentration giving a half-maximal response (EC50) was 293 nM.

Turning to `Cc1cc(=O)n2nc(N3CCc4ncc(-c5ccncc5)cc4C3)c(C)cc2n1` [Compound 1-240, 2,8-dimethyl-7-(3-(pyridin-4-yl)-7,8-dihydro-1,6-naphthyridin-6(5H)-yl)-4H-pyrimido[1,2-b]pyridazin-4-one], the maximal response (Emax) at 30 µM came out at 86% and the EC50 worked out at 284 nM.

In the case of `Cc1ccc(-c2cnc3c(c2)CN(c2nn4c(=O)cc(C5CC5)nc4cc2C)CC3)cn1` [Compound 1-79, 2-cyclopropyl-8-methyl-7-(3-(6-methylpyridin-3-yl)-7,8-dihydro-1,6-naphthyridin-6(5H)-yl)-4H-pyrimido[1,2-b]pyridazin-4-one], the maximum response (Emax) at 30 µM was 109% and the EC50 came to 66 nM.

Turning to `CCc1ccccc1-c1cnc2c(c1)CN(c1nn3c(=O)cc(C)nc3c(C)c1C)CC2` [Compound 1-249, 7-(3-(2-ethylphenyl)-7,8-dihydro-1,6-naphthyridin-6(5H)-yl)-2,8,9-trimethyl-4H-pyrimido[1,2-b]pyridazin-4-one], the maximum response (Emax) at 30 µM amounted to 87% and the EC50 turned out to be 1000 nM.

For `Cc1cc2nccc(=O)n2nc1N1CCc2ncc(Nc3ccccc3)cc2C1` [Compound 2-60, 8-methyl-7-(3-(phenylamino)-7,8-dihydro-1,6-naphthyridin-6(5H)-yl)-4H-pyrimido[1,2-b]pyridazin-4-one], the Emax at 30 µM is 91% and the EC50 stood at 29 nM.
